Test results from ChEMBL document CHEMBL5614391, “GPX4 allosteric activators inhibit ferroptosis and exert myocardial protection in doxorubicin-induced myocardial injury mouse model” (Eur J Med Chem, 2024).

target: T1, Phospholipid hydroperoxide glutathione peroxidase GPX4 (Homo sapiens, UniProt P36969); assay: Binding affinity to GPX4 (unknown origin) assessed as dissociation constant by surface plasmon resonance
T1 sequence (P36969 whole entry): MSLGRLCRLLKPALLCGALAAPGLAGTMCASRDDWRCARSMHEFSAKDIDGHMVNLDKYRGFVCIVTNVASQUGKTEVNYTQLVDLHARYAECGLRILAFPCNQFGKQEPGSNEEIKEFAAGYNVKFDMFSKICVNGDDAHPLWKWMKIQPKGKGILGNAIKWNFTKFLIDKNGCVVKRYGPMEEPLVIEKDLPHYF

| SMILES | Kd |
| --- | --- |
| COc1ccc(NCc2cccn2-c2nnc(N3CCCCC3)s2)cc1OC | 5.69 µM |
| COc1ccc(NCc2cccn2-c2nnc(N3CCOCC3)s2)cc1OC | 27.1 µM |
| COc1ccc(NCc2cccn2-c2nnc(N3CCOCC3)s2)c(OC)c1 | 10.5 µM |
| COc1ccc(NCc2cccn2-c2nn3ccnc3s2)c(OC)c1 | 0.717 µM |
| COc1ccc(NCc2cccn2-c2nnc(C)s2)cc1OC | 4.48 µM |
| COc1ccc(NCc2cccn2-c2nnc(N(C)C)s2)cc1OC | 5.22 µM |
| CCCN1CCN(c2nnc(-n3cccc3CNc3ccc(OC)c(OC)c3)s2)CC1 | 0.036 µM |
| COc1ccc(NCc2cccn2-c2nnc(NC(=O)c3cccc(F)c3)s2)cc1OC | 0.931 µM |
| COc1ccc(NCc2cccn2-c2nnc(N3CCN(C)CC3)s2)cc1OC | 5.86 µM |
| COc1ccc(NCc2cccn2-c2ccc(Cl)cc2)cc1OC | 1.14 µM |
| CCOc1cc(NCc2cccn2-c2nnc(N3CCN(C)CC3)s2)ccc1OC | 10.7 µM |
| COc1ccc(NCc2cccn2-c2cccc(Cl)n2)cc1OC | 1.05 µM |
| COc1ccc(NCc2cc3ccccc3n2-c2nnc(N3CCN(C)CC3)s2)cc1OC | 4.06 µM |
| CN1CCN(c2nnc(-n3cccc3CNc3ccc4c(c3)OCCO4)s2)CC1 | 0.835 µM |
| COc1ccc(NCc2cccn2-c2nn3ccnc3s2)cc1OC | 4.23 µM |
| CCN(CC)c1nnc(-n2cccc2CNc2ccc(OC)c(OC)c2)s1 | 9.8 µM |
| COc1ccc(NCc2cccn2-c2nnc(NC(=O)c3ccc(F)cc3)s2)cc1OC | 4.69 µM |
| COc1ccc(NCc2cccn2-c2nc3ccccc3s2)cc1OC | 4.99 µM |
| COc1ccc(NCc2cccn2-c2nnc(N3CCN(C)CC3)s2)c(OC)c1 | 0.426 µM |
| COc1ccc(NCc2ccnn2-c2nnc(N3CCN(C)CC3)s2)cc1OC | 4.64 µM |
| COc1ccc(NCc2cccn2-c2nnc(N)s2)cc1OC | 0.17 µM |
| COc1ccc(NCc2cccn2-c2nnc(NC(=O)c3ccccc3F)s2)cc1OC | 10.5 µM |
| COc1ccc(NCc2cccn2-c2ccc(N3CCN(C)CC3)s2)cc1OC | 6.9 µM |
| COc1ccc(NCc2cncn2-c2nnc(N3CCN(C)CC3)s2)cc1OC | 3.43 µM |
| COc1ccc(NCc2cccn2-c2cnc(C)s2)cc1OC | 8.24 µM |
| COc1ccc(NCc2cccn2-c2nncs2)cc1OC | 7.91 µM |
| COc1ccc(NCc2cccn2-c2cccc(N3CCN(C)CC3)n2)cc1OC | 2.1 µM |
| COc1ccc(NCc2cccn2-c2nnc(N3CCN(C)CC3)s2)cc1 | 7.87 µM |
| COc1ccc(NCc2cccn2-c2nnc(NC(=O)c3ccccc3)s2)cc1OC | 1.27 µM |

tested on: HT-1080; assay: Reversal of erastin induced cell death in human HT-1080 cells assessed as cell viability preincubated for 1 hr followed by erastin addition and measured after 24 hrs by CCK8 method

| SMILES | EC50 |
| --- | --- |
| COc1ccc(NCc2cccn2-c2nnc(N3CCN(C)CC3)s2)cc1OC | 19.2 µM |
| COc1ccc(NCc2cccn2-c2nnc(N3CCN(C)CC3)s2)c(OC)c1 | 7.8 µM |
